Measurements taken from US6586206B1, “Methods for making recombinant proteins using apoptosis inhibitors” (priority 1999, dated 2003).
Residues, ends and D or L forms follow the SMILES beside them. *: point of attachment. Cbz = O=C(OCc1ccccc1)*; CH2F = FC*

How the values were obtained:
caspase-3 = caspase-3 activity in CHO culture treated with z-VAD-fmk; assay type: cell-based, Chinese hamster; settings: z-VAD-fmk added to the culture at 100 uM, from 48 hours, every 24 hours
Protocol: (§1) FIGS. 9-10 show assay results of CHO cells seeded in 60 mm dishes and exposed to caspase inhibitor, z-VAD-fmk (added to the cell culture at 100 micromolar concentration, 48 hours after seeding). The z-VAD-fmk inhibitor was added to the culture every 24 hours thereafter. Samples were taken every day and analyzed for caspase-3 activity (FIG. 9) and the % viable cells (FIG. 10).
(§2) CHO (dhfr+) cells grown in suspension were seeded at 1 million cells/ml in 60 mm tissue culture dishes. The cell culture media was a serum-free DMEM/Ham F-12 based medium containing recombinant human insulin and trace elements. Viability of the culture on day 0 was 96%. Two plates were analyzed each day for viability by Trypan Blue exclusion and by annexin/PI binding (Clontech) and for viable cell density. The experiment was carried out for 10 days. A chemical inhibitor of caspases, z-VAD-fmk (Enzyme Systems Products) was dissolved in DMSO to make a 100 mM (1000×) stock and 4 ul was added to a 60 mm dish containing 4 ml of culture. The inhibitor was added 48 hours after the start of the experiment (prior to the onset of apoptosis) and a new aliquot of the z-VAD-fmk inhibitor was added every 24 hours. Controls were cultures without any addition and cultures with the addition of DMSO only.

CHO (dhfr+) cells [1] = assay: viability/apoptosis of CHO culture in 60 mm dishes with z-VAD-fmk (Trypan Blue exclusion, annexin/PI); assay type: cell-based, Chinese hamster
Protocol: as §1, §2

[2] = test system: serum-free culture of CHO cells; settings: Goswami et al. 1999; cited from earlier work
NSO myeloma cells = settings: overexpression in NSO myeloma cells; Murray et al. 1996; cited from earlier work
different cell lines = settings: under cell-culture conditions; other investigators; cited from earlier work
CHO (dhfr+) cells [3] = assay: effect of p35 expression on viability in 2 liter bioreactors; assay type: cell-based, Chinese hamster; settings: p35 expressed in CHO cells vs cpc vector control, 2 liter bioreactor

COC(=O)C[C@H](NC(=O)[C@H](C)NC(=O)[C@@H](NC(=O)OCc1ccccc1)C(C)C)C(=O)CF [z-VAD-fmk] (Cbz-Val-Ala-Asp(OMe)-CH2F)
caspase-3 activity (caspase-3): inhibition of caspase-3 activity | apoptosis in cell cultures (CHO (dhfr+) cells [1]; added at a concentration of about 100 micromolar): can inhibit apoptosis | cell viability (CHO (dhfr+) cells [1]; z-VAD-fmk added to the culture at 100 uM, from 48 hours, every 24 hours): prolongation of cell viability | life of the culture [2]: unable to substantially extend the life

bcl-2: anti-apoptotic gene overexpressed in cultured cells
decline phase characteristics of the cultured cells (NSO myeloma cells): failed to affect the decline phase characteristics | prevention of cell death (different cell lines): can be effective in preventing different cell lines from death

B1: baculovirus p35: apoptosis inhibitor, baculovirus p35, expressed in CHO cells from p35/CPC construct (protein, UniProt P08160 1-299, looked up)
Early 35 kDa protein: MCVIFPVEIDVSQTIIRDCQVDKQTRELVYINKIMNTQLTKPVLMMFNISGPIRSVTRKNNNLRDRIKSKVDEQFDQLERDYSDQMDGFHDSIKYFKDEHYSVSCQNGSVLKSKFAKILKSHDYTDKKSIEAYEKYCLPKLVDERNDYYVAVCVLKPGFENGSNQVLSFEYNPIGNKVIVPFAHEINDTGLYEYDVVAYVDSVQFDGEQFEEFVQSLILPSSFKNSEKVLYYNEASKNKSMIYKALEFTTESSWGKSEKYNWKIFCNGFIYDKKSKVLYVKLHNVTSALNKNVILNTIK
viability in the bioreactor (CHO (dhfr+) cells [3]): prolongation of viability
